Test results: ChEMBL document CHEMBL3272320, “Antidepressant and anticonvulsant activity of 1-(5-phenyl-4-oxazolin-2-yl)-4-substituted piperazines” (1976)
Active and inactive are the calls of the source. The calls are words filed in the database; no cut-off is given here.

Experiments:
[1] = test system: Mus musculus; test: Antidepressant activity in po dosed mouse after 4 hrs by Dopa potentiation test relative to pemoline; assay type: functional
[2] = test system: Mus musculus; test: Antidepressant activity in mouse at […] after 4 hrs by Dopa potentiation test; assay type: functional, organism-based
[3] = test system: Mus musculus; test: Anticonvulsant activity in mouse assessed as protection against tonic extensor component of audiogenic seizures at 100 mg/kg, po; assay type: functional

| SMILES | fold change (FC) [1] | Activity [2] | Activity [3] [%] |
| --- | --- | --- | --- |
| O=C1N=C(N2CCN(C(=O)/C=C/c3ccc(F)cc3)CC2)OC1c1ccccc1 (configuration not stated) | 2 | Active |  |
| NC(=O)N1CCN(C2=NC(=O)C(c3ccccc3)O2)CC1 (configuration not stated) |  | Active | 10 |
| COc1ccc(/C=C/C(=O)N2CCN(C3=NC(=O)C(c4ccccc4)O3)CC2)cc1 (configuration not stated) |  | Active |  |
| COc1ccc(NC(=O)N2CCN(C3=NC(=O)C(c4ccccc4)O3)CC2)cc1 (configuration not stated) |  | Active | 20 |
| O=C1N=C(N2CCN(C(=O)Nc3ccc(Cl)cc3)CC2)OC1c1ccccc1 (configuration not stated) |  | Active | 50 |
| COc1cc(/C(C)=C/C(=O)N2CCN(C3=NC(=O)C(c4ccccc4)O3)CC2)cc(OC)c1OC (configuration not stated) |  | Active |  |
| CNC(=O)N1CCN(C2=NC(=O)C(c3ccccc3)O2)CC1 (configuration not stated) |  | Active | 50 |
| O=C1N=C(N2CCN(C(=O)Nc3ccccc3)CC2)OC1c1ccccc1 (configuration not stated) |  | Active | 50 |
| COc1cc(/C=C/C(=O)N2CCN(C3=NC(=O)C(c4ccccc4)O3)CC2)cc(OC)c1OC (configuration not stated) | 2.5 | Active |  |
| NC1=NC(=O)C(c2ccccc2)O1 (configuration not stated) [PEMOLINE] |  | Active | 90 |
| COc1cc(/C=C/C(=O)N2CCN(C3=NC(=O)C(c4ccccc4)O3)CC2)cc(Br)c1OC (configuration not stated) | 3 | Active |  |
| CCN(CC)C(=O)N1CCN(C2=NC(=O)C(c3ccccc3)O2)CC1 (configuration not stated) |  | Active | 60 |
